US20250145633A1, “SUBSTITUTED FURANOPYRIMIDINE COMPOUNDS AS PDE1 INHIBITORS” (Dart NeuroScience, LLC, priority 2017, published 2025)

Target: human PDE1B enzyme (Homo sapiens (Human), UniProt Q01064)
Test: IMAP TR-FRET PDE1B enzymatic assay
Format: biochemical
Settings: negative log of half-maximal molar inhibitory concentration, 200 nM FAM-cAMP, values given as bins; for IC50: read-out: PDE1b (pIC50) (converted)
Method in brief: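 Full-length GST-tagged human PDE1B (250 pg/well) in IMAP BSA buffer with 10 U/ml calmodulin and 2.5 mM CaCl2; compound pre-incubated 5 min at room temperature, then 200 nM (final) FAM-cAMP for 30 min. IMAP binding reagent/Tb added, 1 h; TR-FRET 520/490 ratio read. IC50 from sigmoidal dose-response fit.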

Structure (SMILES) | PDE1b (pIC50) | IC50 [nM]
CCCc1ccnc(C2CCN(C(=O)c3c(C)oc4ncnc(NC5(C)CC5)c34)CC2)n1 [Example 369, 6-Methyl-N-(1-methylcyclopropyl)-5-[4-(4-propylpyrimidin-2-yl)piperidine-1-carbonyl]furo[2,3-d]pyrimidin-4-amine] | >8 | –
COc1cnc(C2CCN(C(=O)c3c(C)oc4ncnc(NC5(C)CC5)c34)CC2)nc1 [Example 370, 5-[4-(5-Methoxypyrimidin-2-yl)piperidine-1-carbonyl]-6-methyl-N-(1-methylcyclopropyl)furo[2,3-d]pyrimidin-4-amine] | >8 | –
COc1ccc(CC2(NC(=O)c3c(C)oc4ncnc(NC5(C)CC5)c34)CC2)cc1 [Example 371, N-{1-[(4-Methoxyphenyl)methyl]cyclopropyl}-6-methyl-4-[(1-methylcyclopropyl)amino]furo[2,3-d]pyrimidine-5-carboxamide] | – | 10 to 100
Cc1oc2ncnc(NC3(C)CC3)c2c1C(=O)N1CCC(c2cccc(Br)n2)C1 (stereo not drawn) [Example 372, 5-[3-(6-Bromopyridin-2-yl)pyrrolidine-1-carbonyl]-6-methyl-N-(1-methylcyclopropyl)furo[2,3-d]pyrimidin-4-amine] | >8 | –
Cc1oc2ncnc(NC3(C)CC3)c2c1C(=O)N1CCC(c2ccc(Br)cn2)C1 (stereo not drawn) [Example 373, 5-[3-(5-Bromopyridin-2-yl)pyrrolidine-1-carbonyl]-6-methyl-N-(1-methylcyclopropyl)furo[2,3-d]pyrimidin-4-amine] | >8 | –
Cc1oc2ncnc(NC3(C)CC3)c2c1C(=O)NC(C)(C)CF [Example 374, N-(1-Fluoro-2-methylpropan-2-yl)-6-methyl-4-[(1-methylcyclopropyl)amino]furo[2,3-d]pyrimidine-5-carboxamide] | – | 10 to 100
Cc1oc2ncnc(NC3(C)CC3)c2c1C(=O)N1CCCC2(C1)C(=O)Nc1ccccc12 (stereo not drawn) [Example 375, 1′-{6-Methyl-4-[(1-methylcyclopropyl)amino]furo[2,3-d]pyrimidine-5-carbonyl}-1,2-dihydrospiro[indole-3,3′-piperidine]-2-one] | – | 100 to 1000
Cc1oc2ncnc(NC3(C)CC3)c2c1C(=O)N1CCCC2(C1)C(=O)N(C)c1ccccc12 (stereo not drawn) [Example 376, 1-Methyl-1′-{6-methyl-4-[(1-methylcyclopropyl)amino]furo[2,3-d]pyrimidine-5-carbonyl}-1,2-dihydrospiro[indole-3,3′-piperidine]-2-one] | – | 100 to 1000
Cc1oc2ncnc(NC3(C)CC3)c2c1C(=O)N1CC(C#N)C2(C1)C(=O)Nc1ccccc12 (stereo not drawn) [Example 377, 1′-{6-Methyl-4-[(1-methylcyclopropyl)amino]furo[2,3-d]pyrimidine-5-carbonyl}-2-oxo-1,2-dihydrospiro[indole-3,3′-pyrrolidine]-4′-carbonitrile] | – | 10 to 100
Cc1oc2ncnc(NC3(C)CC3)c2c1C(=O)N1CCOC2(CCc3ccccc32)C1 (stereo not drawn) [Example 378, 5-({2,3-Dihydrospiro[indene-1,2′-morpholine]-4′-yl}carbonyl)-6-methyl-N-(1-methylcyclopropyl)furo[2,3-d]pyrimidin-4-amine] | – | 100 to 1000
Cc1oc2ncnc(NC3(C)CC3)c2c1C(=O)N1CCCC2(C1)OCc1ccccc12 (stereo not drawn) [Example 379, 6-Methyl-N-(1-methylcyclopropyl)-5-({3H-spiro[2-benzofuran-1,3′-piperidine]-1′-yl}carbonyl)furo[2,3-d]pyrimidin-4-amine] | – | 100 to 1000
Cc1oc2ncnc(NC3(C)CC3)c2c1C(=O)N1CCC2(C1)OCc1ccccc12 (stereo not drawn) [Example 380, 6-Methyl-N-(1-methylcyclopropyl)-5-(f{3H-spiro[2-benzofuran-1,3′-pyrrolidine]-1′-yl}carbonyl)furo[2,3-d]pyrimidin-4-amine] | – | 10 to 100
Cc1oc2ncnc(NC3(C)CC3)c2c1C(=O)N1CCN(c2cncnc2)CC1 [Example 381, 6-Methyl-N-(1-methylcyclopropyl)-5-[4-(pyrimidin-5-yl)piperazine-1-carbonyl]furo[2,3-d]pyrimidin-4-amine] | – | 10 to 100
Cc1oc2ncnc(NC3(C)CC3)c2c1C(=O)N1CCC(c2ccc(C(N)=O)cc2)CC1 [Example 382, 4-(1-{6-Methyl-4-[(1-methylcyclopropyl)amino]furo[2,3-d]pyrimidine-5-carbonyl}piperidin-4-yl)benzamide] | >8 | –
Cc1ccc(C2CCN(C(=O)c3c(C)oc4ncnc(NC5(C)CC5)c34)CC2)cn1 [Example 383, 6-Methyl-N-(1-methylcyclopropyl)-5-[4-(6-methylpyridin-3-yl)piperidine-1-carbonyl]furo[2,3-d]pyrimidin-4-amine] | – | 10 to 100
Cc1ccc(C2CCN(C(=O)c3c(C)oc4ncnc(NC5(C)CC5)c34)CC2)cc1 [Example 384, 6-Methyl-N-(1-methylcyclopropyl)-5-[4-(4-methylphenyl)piperidine-1-carbonyl]furo[2,3-d]pyrimidin-4-amine] | >8 | –
Cc1oc2ncnc(NC3(C)CC3)c2c1C(=O)N1CCC(c2ccc(C#N)cc2)CC1 [Example 385, 4-(1-{6-Methyl-4-[(1-methylcyclopropyl)amino]furo[2,3-d]pyrimidine-5-carbonyl}piperidin-4-yl)benzonitrile] | >8 | –
Cc1oc2ncnc(NC3(C)CC3)c2c1C(=O)N1CCC2(CC1)OC(=O)Nc1ccc(F)cc12 [Example 386, 6-Fluoro-1′-{6-methyl-4-[(1-methylcyclopropyl)amino]furo[2,3-d]pyrimidine-5-carbonyl}-1,2-dihydrospiro[3,1-benzoxazine-4,4′-piperidine]-2-one] | – | 10 to 100
Cc1oc2ncnc(NC3(C)CC3)c2c1C(=O)N1CCC2(C=Cc3ccccc32)CC1 [Example 387, 6-Methyl-N-(1-methylcyclopropyl)-5-({spiro[indene-1,4′-piperidine]-1′-yl}carbonyl)furo[2,3-d]pyrimidin-4-amine] | >8 | –
Cc1oc2ncnc(NC3(C)CC3)c2c1C(=O)N1CCC2(CC1)SCc1ccccc12 [Example 388, 6-Methyl-N-(1-methylcyclopropyl)-5-(f{3H-spiro[2-benzothiophene-1,4′-piperidine]-1′-yl}carbonyl)furo[2,3-d]pyrimidin-4-amine] | >8 | –
Cc1oc2ncnc(NC3(C)CC3)c2c1C(=O)N1CCC(c2cccc(F)c2)C1 (stereo not drawn) [Example 389, 5-[3-(3-Fluorophenyl)pyrrolidine-1-carbonyl]-6-methyl-N-(1-methylcyclopropyl)furo[2,3-d]pyrimidin-4-amine] | >8 | –
Cc1ccnc(C2CCN(C(=O)c3c(C)oc4ncnc(NC5(C)CC5)c34)CC2)n1 [Example 390, 6-Methyl-N-(1-methylcyclopropyl)-5-[4-(4-methylpyrimidin-2-yl)piperidine-1-carbonyl]furo[2,3-d]pyrimidin-4-amine] | >8 | –
Cc1cnc(C2CCN(C(=O)c3c(C)oc4ncnc(NC5(C)CC5)c34)CC2)nc1C [Example 391, 5-[4-(4,5-Dimethylpyrimidin-2-yl)piperidine-1-carbonyl]-6-methyl-N-(1-methylcyclopropyl)furo[2,3-d]pyrimidin-4-amine] | – | 10 to 100
Cc1oc2ncnc(NC3(C)CC3)c2c1C(=O)N1CCC2(C1)C(=O)Nc1ccccc12 (stereo not drawn) [Example 392, 1′-{6-Methyl-4-[(1-methylcyclopropyl)amino]furo[2,3-d]pyrimidine-5-carbonyl}-1,2-dihydrospiro[indole-3,3′-pyrrolidine]-2-one] | – | 10 to 100
